Conditions: Liquid, Vibrating tube method

Cc1ccccc1 [toluene]
Conditions	mass density [kg/m3]
283.16 K, 1020 kPa	876.55
283.16 K, 5010 kPa	879.36
283.16 K, 10030 kPa	882.78
283.16 K, 15050 kPa	886.11
283.16 K, 20080 kPa	889.23
283.16 K, 25060 kPa	892.35
283.16 K, 30040 kPa	895.27
283.16 K, 35080 kPa	898.24
283.16 K, 40060 kPa	901.05
283.16 K, 45050 kPa	903.77
283.16 K, 50010 kPa	906.43
283.16 K, 55060 kPa	909.09
283.16 K, 60030 kPa	911.65
283.16 K, 65050 kPa	914.15
298.15 K, 1040 kPa	862.88
298.15 K, 5040 kPa	865.93
298.15 K, 10030 kPa	869.6
298.15 K, 15050 kPa	873.21
298.15 K, 20040 kPa	876.63
298.15 K, 25050 kPa	879.93
298.15 K, 30060 kPa	883.14
298.15 K, 35020 kPa	886.25
298.15 K, 40040 kPa	889.26
298.15 K, 45070 kPa	892.2
298.15 K, 50040 kPa	895.06
298.15 K, 55040 kPa	897.86
298.15 K, 60030 kPa	900.56
298.15 K, 65020 kPa	903.2
323.15 K, 1050 kPa	839.46
323.15 K, 5050 kPa	843.04
323.15 K, 10030 kPa	847.29
323.15 K, 15010 kPa	851.38
323.15 K, 20010 kPa	855.27
323.15 K, 25060 kPa	859.05
323.15 K, 30080 kPa	862.69
323.15 K, 35020 kPa	866.13
323.15 K, 40010 kPa	869.52
323.15 K, 45060 kPa	872.84
323.15 K, 50010 kPa	875.93
323.15 K, 55010 kPa	879.01
323.15 K, 60050 kPa	882.04
323.15 K, 65030 kPa	884.91
348.15 K, 1060 kPa	815.55
348.15 K, 5070 kPa	819.75
348.15 K, 10010 kPa	824.67
348.15 K, 15030 kPa	829.43
348.15 K, 20030 kPa	833.88
348.15 K, 25020 kPa	838.2
348.15 K, 30080 kPa	842.3
348.15 K, 35050 kPa	846.21
348.15 K, 40050 kPa	849.97
348.15 K, 45070 kPa	853.63
348.15 K, 50020 kPa	857.09
348.15 K, 55060 kPa	860.49
348.15 K, 60040 kPa	863.8
348.15 K, 65070 kPa	867
373.15 K, 1050 kPa	790.86
373.15 K, 5020 kPa	795.87
373.15 K, 10040 kPa	801.74
373.15 K, 15040 kPa	807.26
373.15 K, 20030 kPa	812.38
373.15 K, 25080 kPa	817.35
373.15 K, 30070 kPa	821.93
373.15 K, 35040 kPa	826.36
373.15 K, 40040 kPa	830.59
373.15 K, 45030 kPa	834.57
373.15 K, 50040 kPa	838.5
373.15 K, 55040 kPa	842.23
373.15 K, 60010 kPa	845.81
398.15 K, 1070 kPa	765.25
398.15 K, 5030 kPa	771.26
398.15 K, 10040 kPa	778.22
398.15 K, 15080 kPa	784.74
398.15 K, 20010 kPa	790.62
398.15 K, 25050 kPa	796.25
398.15 K, 30040 kPa	801.49
398.15 K, 35040 kPa	806.48
398.15 K, 40020 kPa	811.17
398.15 K, 45040 kPa	815.71
398.15 K, 50020 kPa	819.96
398.15 K, 55040 kPa	824.15
398.15 K, 60020 kPa	828.11
398.15 K, 65080 kPa	831.99
423.15 K, 1050 kPa	738.06
423.15 K, 5030 kPa	745.45
423.15 K, 10060 kPa	753.93
423.15 K, 15030 kPa	761.54
423.15 K, 20000 kPa	768.41
423.15 K, 25020 kPa	774.89
423.15 K, 30020 kPa	780.87
423.15 K, 35060 kPa	786.56
423.15 K, 40020 kPa	791.82
423.15 K, 45040 kPa	796.87
423.15 K, 50040 kPa	801.63
423.15 K, 55060 kPa	806.24
423.15 K, 60040 kPa	810.55
423.15 K, 65050 kPa	814.77
448.15 K, 1040 kPa	708.96
448.15 K, 5070 kPa	718.48
448.15 K, 10040 kPa	728.71
448.15 K, 15070 kPa	737.86
448.15 K, 20050 kPa	745.94
448.15 K, 25050 kPa	753.39
448.15 K, 30040 kPa	760.21
448.15 K, 35040 kPa	766.59
448.15 K, 40020 kPa	772.48
448.15 K, 45030 kPa	778.13
448.15 K, 50030 kPa	783.39
448.15 K, 55060 kPa	788.44
448.15 K, 60010 kPa	793.17
448.15 K, 65060 kPa	797.83
473.15 K, 1030 kPa	676.8
473.15 K, 5050 kPa	689.34
473.15 K, 10050 kPa	702.19
473.15 K, 15060 kPa	713.2
473.15 K, 20020 kPa	722.73
473.15 K, 25040 kPa	731.39
473.15 K, 30010 kPa	739.18
473.15 K, 35040 kPa	746.42
473.15 K, 40050 kPa	753.09
473.15 K, 45060 kPa	759.38
473.15 K, 50050 kPa	765.18
473.15 K, 55020 kPa	770.69
473.15 K, 60030 kPa	775.95
473.15 K, 65020 kPa	780.92

Source: the NIST ThermoML archive (doi:10.1016/j.jct.2018.04.019)
